Drawing on patent publication US6900343B1, “Method for the purification of metallocenes” (Basell Polyolefine GmbH, priority 1998, dated 2005), this text covers catalyst activity and solubility for five compounds.

Where only a bound is given, the exact number is not on record here.

Data set [1] in a line: Propylene polymerization with supported metallocene/MAO/SiO2 catalyst. The note with it: supported on SiO2 with MAO (Al/Zr=215); liquid propylene, 60° C., 1 hour. Here is the method:
35.1 mg (0.047 mmol) of (1) were stirred in 2.1 ml of 30% strength MAO solution in toluene (Al/Zr=215) for 60 minutes at room temperature. 2 g of SiO2 (Grace XPO2107, pretreated at 140° C., 10 mbar, 10 hours) were subsequently added and the mixture was stirred for another 10 minutes. The solvent was removed in an oil pump vacuum.
A dry 2 l reactor was flushed firstly with nitrogen and subsequently with propylene and charged with 1.5 l of liquid propylene. 2 ml of TEA (20% strength in Varsol) were added thereto and the mixture was stirred for 15 minutes. The catalyst system prepared above (0.886 g) was subsequently resuspended in 20 ml of heptane and then injected into the reactor and rinsed in with 15 ml of heptane. The reaction mixture was heated to the polymerization temperature of 60° C. and polymerization was carried out for 1 hour. The polymerization was stopped by venting the remaining propylene. The polymer was dried in a vacuum drying oven. This gave 470 g of polypropylene powder. […] The catalyst activity was 0.53 kg of PP/g of catalyst x h.
27.1 mg (0.047 mmol) of dimethylsilanediylbis(2-methyl-4,5-benzoindenyl)zirconium dichloride were stirred in 2.1 ml of 30% strength MAO solution in toluene (Al/Zr=215) for 60 minutes at room temperature. […]

Data set [2] can be described thus: Solubility comparison in toluene at room temperature.

Broadly, the solubility is the dissolved amount per volume that the medium holds. Low readings indicate little dissolved substance, high ones much dissolved substance. In the case of `CC1=Cc2c(ccc3ccccc23)[C]12[Si](C)(C)[C]1(C(C)=Cc3c1ccc1ccccc31)[Zr]2([Cl])[O]c1ccc(C(C)(C)C)cc1C(C)(C)C` (stereo not shown) [Compound 1, Dimethylsilanediylbis(2-methyl-4,5-benzoindenyl)zirconium Monochloride mono(2,4-di-tert-butylphenoxide)], the catalyst activity in data set [1] is 0.53 kg of PP/g of catalyst x h. Further, the solubility in data set [2] is > 13 mM. Regarding `CCC(C)(C)c1ccc([O][Zr]2([Cl])[C]3(C(C)=Cc4c3ccc3ccccc43)[Si](C)(C)[C]23C(C)=Cc2c3ccc3ccccc23)c(C(C)(C)CC)c1` (stereo not shown) [Compound 6, Dimethylsilanediylbis(2-methyl-4,5-benzoindenyl)-zirconium Monochloride mono(2,4-di-tert-pentylphenoxide)], the solubility result in data set [2] is reported as “about 17.7 mmol/l”.

For `CC1=Cc2c(ccc3ccccc23)[C]12[Si](C)(C)[C]1(C(C)=Cc3c1ccc1ccccc31)[Zr]2([Cl])[Cl]` (stereo not shown) [dimethylsilanediylbis(2-methyl-4,5-benzoindenyl)zirconium dichloride, reference compound], the catalyst activity in data set [1] was 0.46 kg of PP/g of catalyst x h. Moreover, the solubility entry in data set [2] is reported as “about 0.36 mmol/l”. As for `Cc1cc2ccccc2[c-]1[Si](C)(C)[c-]1c(C)cc2ccccc21.[Cl-].[Cl-].[Zr+4]` (stereo not shown) [dimethylsilanediylbis(2-methylindenyl)zirconium dichloride, reference compound], in data set [2], the solubility entry was “about 2.1 mmol/l”. Same read-out and setting: under “Dimethylsilanediyl-bis(2-methylindenyl)zirconium Monochloride mono(2,4-di-tert-butylphenoxide) [Compound 2]” stands > 15 mM.
